Results from the NIST ThermoML archive (doi:10.1021/je060124c).

Conditions: Liquid, Capillary tube (Ostwald / Ubbelohde) method

O [water]
viscosity [mPa·s]
Conditions | 296.56 K | 337.85 K | 369.15 K | 398.75 K | 436.34 K | 482.43 K | 521.56 K | 580.74 K
10000 kPa | 0.9188 | 0.4362 | 0.296 | 0.2229 | 0.168 | 0.1308 | 0.1089 | 0.0838
30000 kPa | 0.9185 | 0.4437 | 0.3028 | 0.2295 | 0.1743 | 0.1341 | 0.1143 | 0.0953
